This is an account of results in ChEMBL document CHEMBL3739364, “Synthesis and biological evaluation of novel 5-(hydroxamic acid)methyl oxazolidinone derivatives” (Eur J Med Chem, 2015).

Data set [1] has as its target T1, Amine oxidase [flavin-containing] B (Homo sapiens, UniProt P27338).
T1 sequence (P27338 whole entry): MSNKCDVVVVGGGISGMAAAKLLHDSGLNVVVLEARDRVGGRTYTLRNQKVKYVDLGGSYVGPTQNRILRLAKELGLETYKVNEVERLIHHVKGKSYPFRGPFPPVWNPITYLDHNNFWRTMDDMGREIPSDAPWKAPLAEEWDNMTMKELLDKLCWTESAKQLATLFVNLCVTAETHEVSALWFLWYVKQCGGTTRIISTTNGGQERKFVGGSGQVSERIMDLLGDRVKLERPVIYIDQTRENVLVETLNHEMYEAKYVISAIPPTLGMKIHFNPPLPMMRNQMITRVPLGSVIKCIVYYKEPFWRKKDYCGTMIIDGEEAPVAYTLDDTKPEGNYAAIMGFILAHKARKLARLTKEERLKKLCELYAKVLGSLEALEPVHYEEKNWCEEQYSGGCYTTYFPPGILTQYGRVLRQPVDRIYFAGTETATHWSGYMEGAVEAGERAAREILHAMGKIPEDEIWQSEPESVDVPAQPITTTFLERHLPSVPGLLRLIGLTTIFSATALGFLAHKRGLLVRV
The data set is described as follows: Reversible inhibition of human MAO-B.

Data set [2] deals with T2, Amine oxidase [flavin-containing] A (Homo sapiens, UniProt P21397).
T2 sequence (P21397 whole entry): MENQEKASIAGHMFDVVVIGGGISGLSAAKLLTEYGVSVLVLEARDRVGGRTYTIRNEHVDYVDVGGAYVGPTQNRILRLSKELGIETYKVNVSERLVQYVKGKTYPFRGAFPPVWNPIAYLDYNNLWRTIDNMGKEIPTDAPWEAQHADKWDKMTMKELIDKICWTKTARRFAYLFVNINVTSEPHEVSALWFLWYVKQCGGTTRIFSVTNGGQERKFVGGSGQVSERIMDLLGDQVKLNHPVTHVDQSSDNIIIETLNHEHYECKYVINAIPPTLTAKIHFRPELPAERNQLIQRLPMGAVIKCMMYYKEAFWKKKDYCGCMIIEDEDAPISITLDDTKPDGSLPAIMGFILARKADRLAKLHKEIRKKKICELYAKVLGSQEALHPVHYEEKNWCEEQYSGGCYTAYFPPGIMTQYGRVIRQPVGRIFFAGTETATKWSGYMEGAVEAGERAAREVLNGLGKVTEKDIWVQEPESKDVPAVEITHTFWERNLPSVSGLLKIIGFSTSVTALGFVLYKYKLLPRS
Briefly: Reversible inhibition of human MAO-A.

In a further data set the test system is Streptococcus pneumoniae. Briefly: Antibacterial activity against Streptococcus pneumoniae. It is filed as functional.
In a further data set the test system is Escherichia coli. The data set is described as follows: Antibacterial activity against Escherichia coli ATCC 25922. Type of data set: functional.
The subject of a further data set is Haemophilus influenzae. The data set is described as follows: Antibacterial activity against Haemophilus influenzae ATCC 49247. Type of data set: functional.
Data set [3] relates to Staphylococcus aureus. Briefly: Antibacterial activity against […] Staphylococcus aureus ATCC 25923. Type of data set: functional.
The target of data set [4] is T3, MAO-A (amine oxidase [flavin-containing] A) (Homo sapiens, UniProt P21397).
T3 sequence (P21397 whole entry): T2 sequence (P21397 whole entry)
Briefly: Inhibition of human recombinant MAO-A using p-tyramine as substrate at 50 to 200 uM measured up to 50 mins by ELISA screening analysis. The following applies: probe p-tyramine.

Data set [5] deals with Staphylococcus epidermidis. Briefly: Antibacterial activity against methicillin-sensitive Staphylococcus epidermidis ATCC 12228. It is filed as functional.
For data set [6], the target named is T4, MAO-B (amine oxidase [flavin-containing] B) (Homo sapiens, UniProt P27338).
T4 sequence (P27338 whole entry): T1 sequence (P27338 whole entry)
Briefly: Inhibition of human recombinant MAO-B using p-tyramine as substrate at 50 to 200 uM measured up to 50 mins by ELISA screening analysis. The following applies: probe p-tyramine.

Data set [7] concerns the target T1, Amine oxidase [flavin-containing] B. The data set is described as follows: Inhibition of human recombinant MAO-B using p-tyramine as substrate after 15 mins by UV/Vis spectrophotometer analysis.
The target of data set [8] is T2, Amine oxidase [flavin-containing] A. Briefly: Inhibition of human recombinant MAO-A using p-tyramine as substrate after 15 mins by UV/Vis spectrophotometer analysis.
Data set [9] deals with Mycobacterium tuberculosis. Briefly: Antimycobacterial activity against Mycobacterium tuberculosis H37Rv. It is filed as functional.
The species named for a further data set is Homo sapiens. Briefly: Selectivity ratio of IC50 for human recombinant MAO-A to IC50 for human recombinant MAO-B.
Data set [10] has as its system Staphylococcus aureus. The data set is described as follows: Antibacterial activity against […] Staphylococcus aureus ATCC 25923 after 18 hrs by broth dilution method. Type of data set: functional. The conditions noted are these: ATCC 25923, 18 h. Background: Dilution methods test growth across graded concentrations, often in twofold steps.
Data set [11] deals with Staphylococcus epidermidis. Briefly: Antibacterial activity against methicillin-sensitive Staphylococcus epidermidis ATCC 12228 after 18 hrs by broth dilution method. Type of data set: functional. The following applies: ATCC 12228, 18 h.
In data set [12] the test system is Mycobacterium tuberculosis. The data set is described as follows: Antimycobacterial activity against Mycobacterium tuberculosis H37Rv ATCC 27294. Type of data set: functional.

Values after ≈ are worked out from the molar mass of the structure shown.

For the molecule `Cn1nnc(-c2ccc(-c3ccc(N4C[C@H](CO)OC4=O)cc3F)cn2)n1` [TEDIZOLID], the figures for the half-maximal inhibitory concentration (IC50) in [1] and in [2] were 5.7 µM and 8.7 µM, respectively.
On to `CCC(=O)N(O)C[C@H]1CN(c2ccc(N3CCN(C(C)=O)CC3)c(F)c2)C(=O)O1`, for which the MIC (against Streptococcus pneumoniae; with Escherichia coli; with Haemophilus influenzae; with Staphylococcus aureus [3]; in data set [5]) was greater than 32 µg/mL each time. For the same molecule, the inhibition (in general, the change of the read-out against control, counted positive when it falls) at 50 min in data set [4] was less than 50%.
For the molecule `CC(=O)N1CCN(c2ccc(N3C[C@H](CN(OC(=O)C(C)C)C(=O)C(C)C)OC3=O)cc2F)CC1`, the MIC (with Streptococcus pneumoniae; against Escherichia coli; with Haemophilus influenzae; in data set [5]) was greater than 32 µg/mL in each case. The inhibition at 50 min in data set [6] and in [4] was less than 50% each time.
On to `CC(=O)ON(C[C@H]1CN(c2ccc(N3CCN(C(C)=O)CC3)c(F)c2)C(=O)O1)C(C)=O`, for which the MIC (in the data set with Streptococcus pneumoniae; with Escherichia coli; with Haemophilus influenzae; in data set [5]) was greater than 32 µg/mL each time. Further, in data set [4], the inhibition at 50 min is less than 50%.
`CCC(=O)ON(C[C@H]1CN(c2ccc(N3CCOCC3)c(F)c2)C(=O)O1)C(=O)CC`: the MIC (in the data set with Streptococcus pneumoniae; in the data set on Escherichia coli; against Haemophilus influenzae; in data set [5]) was greater than 32 µg/mL each time. For the same molecule, the half-maximal inhibitory concentration (IC50) – broadly, the concentration that gives 50% inhibition – in data set [7] is 168 µM. Besides, the inhibition at 50 min was no less than 50% in data set [6] and less than 50% in data set [4].
On to `CC(=O)N1CCN(c2ccc(N3C[C@H](CNO)OC3=O)cc2F)CC1.O=C(O)C(F)(F)F`, for which the MIC (against Streptococcus pneumoniae; against Escherichia coli; against Haemophilus influenzae; against Staphylococcus aureus [3]; in data set [5]) was greater than 32 µg/mL each time. Moreover, the 50% inhibitory concentration (IC50) in data set [8] came to 46.6 µM. For the same molecule, the inhibition at 50 min in [4] is no less than 50%.
The molecule `NC(=S)NC[C@H]1CN(c2ccc(C3CCCCC3=O)c(F)c2)C(=O)O1` (some centres not stated) displayed an MIC in data set [9] of 0.06 µg/mL (≈ 0.164 µM).
On to `O=C(ON(C[C@H]1CN(c2ccc(N3CCOCC3)c(F)c2)C(=O)O1)C(=O)C1CC1)C1CC1`, for which the MIC (against Streptococcus pneumoniae; against Escherichia coli; against Haemophilus influenzae; in [5]) was greater than 32 µg/mL each time. The inhibition at 50 min in data set [6] and in data set [4] was less than 50% throughout.
`CC(=O)N1CCN(c2ccc(N3C[C@H](CN(OC(=O)C4CC4)C(=O)C4CC4)OC3=O)cc2F)CC1`: the MIC (in the data set on Streptococcus pneumoniae; with Escherichia coli; against Haemophilus influenzae; in [5]) was greater than 32 µg/mL in each case. Besides, the inhibition at 50 min in data set [4] was less than 50%.
Turning to `CC(=O)N(O)C[C@H]1CN(c2ccc(N3CCN(C(C)=O)CC3)c(F)c2)C(=O)O1`, the MIC (in the data set with Streptococcus pneumoniae; against Escherichia coli; against Haemophilus influenzae; against Staphylococcus aureus [3]; in [5]) was greater than 32 µg/mL in each case. Also, the inhibition at 50 min in data set [6] and in data set [4] was less than 50% in each case.
`CC(=O)ON(C[C@H]1CN(c2ccc(N3CCOCC3)c(F)c2)C(=O)O1)C(C)=O`: the MIC (with Streptococcus pneumoniae; in the data set with Escherichia coli; in the data set with Haemophilus influenzae; in data set [5]) was greater than 32 µg/mL throughout. The inhibition at 50 min in data set [6] and in [4] was less than 50% throughout.
For the molecule `CCC(=O)N(O)C[C@H]1CN(c2ccc(N3CCOCC3)c(F)c2)C(=O)O1`, the MIC (against Streptococcus pneumoniae; with Escherichia coli; in the data set with Haemophilus influenzae; against Staphylococcus aureus [3]; in data set [5]) was greater than 32 µg/mL throughout. In addition, the half-inhibitory concentration (IC50) in data set [7] came out at 100 µM; in data set [8], 115 µM. In the data set filed under Homo sapiens, the Ratio IC50 is 1.15. Also, the inhibition at 50 min in [6] and in data set [4] was no less than 50% each time.
`CC(=O)N(O)C[C@H]1CN(c2ccc(N3CCOCC3)c(F)c2)C(=O)O1`: the MIC with Streptococcus pneumoniae is greater than 32 µg/mL; in the data set on Escherichia coli, greater than 32 µg/mL; against Haemophilus influenzae it was greater than 32 µg/mL; with Staphylococcus aureus [10], greater than 32 µg/mL; in data set [11] it was 16 µg/mL (≈ 45.3 µM). In addition, the inhibition at 50 min in data set [6] and in data set [4] was less than 50% each time. Also, in data set [12], the MIC50 (commonly an inhibitory concentration at the 50% level, which refers to growth in some studies and to a panel of isolates in others) came out at 1.38 µg/mL (≈ 3.91 µM). The MIC90 – broadly, an inhibitory concentration at the 90% level, which refers to growth in some studies and to a panel of isolates in others – in [12] was 4.6 µg/mL (≈ 13 µM).
Regarding `CC(C)C(=O)N(O)C[C@H]1CN(c2ccc(N3CCOCC3)c(F)c2)C(=O)O1`, the MIC (in the data set with Streptococcus pneumoniae; in the data set with Escherichia coli; with Haemophilus influenzae; with Staphylococcus aureus [3]; in data set [5]) was greater than 32 µg/mL in each case. In addition, the IC50 in [7] is 107 µM. Also, the inhibition at 50 min is no less than 50% in [6] and less than 50% in [4].
With `CCC(=O)ON(C[C@H]1CN(c2ccc(N3CCN(C(C)=O)CC3)c(F)c2)C(=O)O1)C(=O)CC`, the MIC (in the data set with Streptococcus pneumoniae; against Escherichia coli; against Haemophilus influenzae; in data set [5]) was greater than 32 µg/mL throughout. Moreover, in data set [4], the inhibition at 50 min was less than 50%.
As to `CC(C)C(=O)ON(C[C@H]1CN(c2ccc(N3CCOCC3)c(F)c2)C(=O)O1)C(=O)C(C)C`, the MIC (against Streptococcus pneumoniae; against Escherichia coli; against Haemophilus influenzae; in data set [5]) was greater than 32 µg/mL throughout. Moreover, in [7], the IC50 was determined as 108 µM. Also, the results for the inhibition at 50 min in data set [6] and in [4] were no less than 50% and less than 50%, respectively.
For `O=C1O[C@@H](CNO)CN1c1ccc(N2CCOCC2)c(F)c1`, the MIC (in the data set on Streptococcus pneumoniae; against Escherichia coli; in the data set with Haemophilus influenzae; with Staphylococcus aureus [3]; in [5]) was greater than 32 µg/mL throughout. Besides, the figures for the IC50 in data set [7] and in data set [8] were 112 µM and 144 µM, respectively. Also, the Ratio IC50 in the data set filed under Homo sapiens was 1.29. Besides, the inhibition at 50 min in data set [6] and in data set [4] was no less than 50% throughout.
As for `CC(=O)NC[C@H]1CN(c2ccc(N3CCOCC3)c(F)c2)C(=O)O1` [LINEZOLID], the inhibition at 50 min in [6] and in data set [4] was no less than 50% throughout. Besides, the IC50 was 2.1 µM in [1] and 46 µM in [2]. In [5], this molecule came in with an MIC of 2 µg/mL (≈ 5.93 µM).
Regarding `O=C(C1CC1)N(O)C[C@H]1CN(c2ccc(N3CCOCC3)c(F)c2)C(=O)O1`, the MIC (in the data set on Streptococcus pneumoniae; with Escherichia coli; against Haemophilus influenzae; against Staphylococcus aureus [3]; in data set [5]) was greater than 32 µg/mL in each case. The IC50 in data set [7] amounted to 90.9 µM; in data set [8] it was 112 µM. Besides, the Ratio IC50 in the data set listed under Homo sapiens turned out to be 1.23. Besides, the inhibition at 50 min in [6] and in data set [4] was no less than 50% each time.
